pIC50: −log10 of the molar value. Numbered stars: 1 amine (or outer) side, 2 acyl side, 3 side chain; on linkers, the order of the positions; unused ones are H or OH. Ends that are not written are not given here. Peptide text beside a SMILES is read from it. * marks the point of attachment. X1 = O=c1nc(N*)ccn1[C@@H]1O[C@H](CO)[C@@H](O)C1(F)F; Suc = O=C(CCC(=O)[*:2])[*:1]
Key:
Caco-2 monolayer [1] = test system: Caco-2 monolayer
Protocol: (§1) A monolayer of Caco-2 cells was established in a 12-well plate [11]. […] Firstly, filters were pre-wet with 0.1 mL of culture medium for 2 minutes. Cells were seeded in the apical side (0.5 mL of cells per well, cell density of 4.0 x 10^5 cells/mL). The basolateral compartment was filled with 1.5 mL of culture medium and plates were incubated for 6 h (5 % CO2 humidified atmosphere at 37 °C). Then, to remove non-adherent cells and reduce the risk of multilayer formation, the medium in the apical side was removed and replaced with fresh medium. Cells were maintained for 29 days, replacing the culture medium from both compartments every other day.
(§2) All the solutions used were pre-warmed to 37 °C. Culture medium was replaced with fresh medium 24 h prior the beginning of the experiment. Next, this culture medium was removed first from the basolateral and then from the apical compartment. The apical compartment was carefully washed and then filled with 0.5 mL of Hank’s Balanced Salt Solution (HBSS, pH 7.4) and the basolateral compartment was also filled with 1.5 mL of HBSS. […] All tested compounds were prepared in HBBS (60 μM) and added to the apical compartment. Throughout this assay, the final volume was 0.4 mL in the apical compartment and 1.2 mL in the basolateral chamber. At t = 0 min, 0.45 mL of the donor solution was added to the apical compartment and a sample (0.05 mL) was immediately taken. The plate was incubated (lid-covered) at 37 °C under gentle shaking (190 rpm). Every 30 min for the next 2 h, a sample of 0.6 mL was taken from the basolateral compartment and replaced with the same volume of HBSS.
(§3) The concentrations of the evaluated compound in the basolateral and apical compartments were determined by high-performance liquid chromatography (HPLC) (VWR International LCC, LaChrom Ultra, Pennsylvania, USA). Elution was performed with a variable gradient of acetonitrile (ACN) in water containing 0.05 % trifluoroacetic acid (TFA), at a 0.7 mL/min flow and detection at variable wavelength (243 nm for gemcitabine and 220 nm for peptides and conjugates).

Caco-2 monolayer [2] = test: Transport across Caco-2 monolayer (permeability assay); settings: HPLC-UV; for sum of the CPP absorbed from the apical side and found in the basolateral chamber at the end of the experiment: 60 μM apical in HBSS pH 7.4, 37 °C, remainder retained in cells or degraded; for percentage of amount applied apically recovered in the basolateral compartment at 120 min / sum of the CPP absorbed from the apical side and found in the basolateral chamber at the end of the experiment: 120 min
Protocol: as §1, §2, §3

Caco-2 cells = test: MTT cytotoxicity assay (cell growth inhibition); type: cell-based; settings: Homo sapiens, 72 h incubation, 0.1-100000 μM, absorbance 570 nm, triplicate
Protocol: Human colon adenocarcinoma cell line Caco-2 (passage 25-47, kindly provided by the Department of Biomedicine of the Faculty of Medicine of University of Porto, and previously acquired via ATCC) was routinely maintained in Dulbecco’s Modified Eagle’s Medium (DMEM) supplemented with 10 % fetal bovine serum (FBS), L-glutamine and antibiotics penicillin and streptomycin. Cells were cultured at 37 °C in a 5 % CO2 humidified atmosphere. Culturing medium was replaced every 2-3 days and cell subculture was conducted once a week by trypsinization (0.25 % trypsin-EDTA wt/vol, 5, min, 37, °C).
The cell growth inhibitory activity of gemcitabine in Caco-2 cells was assessed with the MTT assay. Briefly, a growth curve was traced to determine the best cell density for the assay. […] Finally, MTT solution was removed, DMSO (100 μL per well) was added to solubilize the formazan crystals formed by viable cells and absorbance was measured at 570 nm in an automated microplate reader (Sinergy HT, Biotek Instruments Inc, Vermont, USA). […]
Gemcitabine cytotoxicity results were compared with the untreated control (mean of values was set to 100 %) and expressed as mean ± SEM. The statistical significance between different gemcitabine concentrations was analyzed in GraphPad Prism 7 (San Diego, EUA) using one-way ANOVA (p<0.05).

[3] = parameters: method as in PMID 16807468; settings: administered intravenously; rapid deamination by cytidine deaminase in serum; cited from earlier work
Description: Gemcitabine (Gem, dFdC or 2′,2′-difluoro-2′-deoxycytidine, Scheme 1) is a cytotoxic nucleoside analogue used as a chemotherapeutic drug.

[4] = Caco-2 monolayer (29 days, Transwell COL PTFE 0.4 μm), apical to basolateral, 60 μM in HBSS pH 7.4, 37 °C, 190 rpm

| percentage of amount applied apically recovered in the basolateral compartment at 120 min (Caco-2 monolayer [2]; [4]) | sum of the CPP absorbed from the apical side and found in the basolateral chamber at the end of the experiment (Caco-2 monolayer [2]; Caco-2 monolayer) | Compound | further results |
| --- | --- | --- | --- |
| 33% | 50% | WKLPVM-NH2 [CPP6-1] |  |
| 40% | 84% | KLPVMW-NH2 [CPP6-2] |  |
| 18% |  | Nc1ccn([C@@H]2O[C@H](CO)[C@@H](O)C2(F)F)c(=O)n1 [Gemcitabine, 2′,2′-difluoro-2′-deoxycytidine] | pIC50 (Caco-2 cells): 4.28; half-life [3]: 8 to 17 min; percentage found in the basolateral side after 30 minutes (Caco-2 monolayer [2]; Caco-2 monolayer (29 days, Transwell COL PTFE 0.4 μm), apical to basolateral, 60 μM in HBSS pH 7.4, 37 °C, 190 rpm, 30 min): 3%; additional percentage of drug crossing the membrane from 90 min (plateau) until 120 min (Caco-2 monolayer [2]; Caco-2 monolayer, apical to basolateral, 60 μM in HBSS pH 7.4, 37 °C, between 90 and 120 min): 1% |
| 37% | 75% | WVPTLK [CPP6-3] |  |

| Compound | percentage of amount applied apically recovered in the basolateral compartment at 120 min (Caco-2 monolayer [2]; [4]) | sum of the CPP absorbed from the apical side and found in the basolateral chamber at the end of the experiment (Caco-2 monolayer [2]; Caco-2 monolayer) | further results |
| --- | --- | --- | --- |
| CSCC[C@H](NC(=O)[C@@H](NC(=O)[C@@H]1CCCN1C(=O)[C@H](CC(C)C)NC(=O)[C@H](CCCCN)NC(=O)CCC(=O)Nc1ccn([C@@H]2O[C@H](CO)[C@@H](O)C2(F)F)c(=O)n1)C(C)C)C(=O)N[C@@H](Cc1c[nH]c2ccccc12)C(N)=O [Gem-CPP6-2] ({X1-Suc}-KLPVMW-NH2) | Approximately 31% |  | extent of permeation relative to Gem-CPP6-1 and Gem-CPP6-3 conjugates (Caco-2 monolayer [1]): about 3 fold |
| CSCC[C@H](NC(=O)[C@@H](NC(=O)[C@@H]1CCCN1C(=O)[C@H](CC(C)C)NC(=O)[C@H](CCCCN)NC(=O)[C@H](Cc1c[nH]c2ccccc12)NC(=O)CCC(=O)Nc1ccn([C@@H]2O[C@H](CO)[C@@H](O)C2(F)F)c(=O)n1)C(C)C)C(N)=O [Gem-CPP6-1] ({X1-Suc}-WKLPVM-NH2) | 9% |  |  |

Reference: PMC8923309, “Permeability evaluation of gemcitabine-CPP6 conjugates in Caco-2 cells” (ADMET & DMPK, 2020)
